Source: the CheMixHub viscosity set
Values joined by “and” are separate entries in the source; they are usually repeats but may differ in a detail not shown here. Equal values may be shown once.

Experiment: xn = mol fraction of the nth substance listed

CC(C)NC(C)C + CCCCOCCO
viscosity [mPa·s], 100 kPa
Conditions | 298.15 K | 303.15 K | 308.15 K
x2 = 0.0501 | 0.42 | 0.4 | 0.38
x2 = 0.1005 | 0.47 | 0.44 | 0.42
x2 = 0.15 | 0.54 | 0.5 | 0.47
x2 = 0.2024 | 0.63 | 0.58 | 0.54
x2 = 0.2999 | 0.8 | 0.73 | 0.68
x2 = 0.3999 | 1.06 | 0.95 | 0.89
x2 = 0.5001 | 1.38 | 1.23 | 1.14
x2 = 0.6002 | 1.77 | 1.56 | 1.42
x2 = 0.6997 | 2.14 | 1.85 | 1.68
x2 = 0.7998 | 2.48 | 2.14 | 1.95
x2 = 0.8999 | 2.74 | 2.39 | 2.14
x2 = 0.9499 | 2.82 | 2.47 | 2.21

CC(C)NC(C)C + CCCCCCO
viscosity [mPa·s], 101 kPa
Conditions | 298.15 K | 303.15 K | 308.15 K
x1 = 0.0503 | 3.969 | 3.366 | 2.859
x1 = 0.1067 | 3.51 | 3.018 | 2.588
x1 = 0.1499 | 3.195 | 2.751 | 2.379
x1 = 0.2041 | 2.823 | 2.438 | 2.114
x1 = 0.253 | 2.501 | 2.171 | 1.901
x1 = 0.3054 | 2.188 | 1.9 | 1.675
x1 = 0.4026 | 1.665 | 1.475 | 1.318
x1 = 0.4986 | 1.272 | 1.156 | 1.046
x1 = 0.6007 | 0.952 | 0.883 | 0.813
x1 = 0.7077 | 0.718 | 0.675 | 0.628
x1 = 0.7994 | 0.582 | 0.547 | 0.514
x1 = 0.8518 | 0.52 | 0.492 | 0.462
x1 = 0.9021 | 0.471 | 0.443 | 0.42
x1 = 0.9545 | 0.42 | 0.401 | 0.378

CN1CCNCC1 + O
Conditions | viscosity [mPa·s]
298.15 K, 101 kPa, x1 = 0.1039 | 10.75

O=CN1CCOCC1 + Cc1cc(C)cc(C)c1
298.15 K, 101.3 kPa
Conditions | viscosity [mPa·s]
x2 = 0.02898 | 7.041
x2 = 0.0601 | 6.315
x2 = 0.08748 | 5.789
x2 = 0.1453 | 4.838
x2 = 0.2504 | 3.53
x2 = 0.3197 | 2.903
x2 = 0.4426 | 2.093
x2 = 0.5274 | 1.701
x2 = 0.6167 | 1.375
x2 = 0.661 | 1.264
x2 = 0.7503 | 1.058
x2 = 0.8348 | 0.877
x2 = 0.9476 | 0.731

O=S(=O)([O-])[O-].[Co+2] + O
viscosity, 101.33 kPa
Conditions | x1 = 0.000905 | x1 = 0.002718 | x1 = 0.00453 | x1 = 0.006344 | x1 = 0.008159 | x1 = 0.04354 | x1 = 0.05633
298.15 K | – | – | – | – | – | 3.182 mPa·s | –
308.15 K | 0.7454 mPa·s | 0.799 mPa·s | 0.8405 mPa·s | 0.897 mPa·s | 0.949 mPa·s | – | –
313.15 K | 0.6751 mPa·s | 0.7255 mPa·s | 0.7615 mPa·s | 0.814 mPa·s | 0.8555 mPa·s | – | –
323.15 K | 0.5699 mPa·s | 0.6065 mPa·s | 0.642 mPa·s | 0.689 mPa·s | 0.739 mPa·s | – | 3.091 mPa·s and 3.091 mPa·s

CCC(=O)c1ccccc1 + CCOC(C)=O
viscosity [mPa·s], 101 kPa
Conditions | x1 = 0.0764 | x1 = 0.1569 | x1 = 0.2419 | x1 = 0.3317 | x1 = 0.4268 | x1 = 0.5276 | x1 = 0.6347 | x1 = 0.7486 | x1 = 0.8701
303.15 K | 0.4784 | 0.5399 | 0.6088 | 0.6897 | 0.7853 | 0.8977 | 1.034 | 1.199 | 1.398
308.15 K | 0.4618 | 0.519 | 0.5844 | 0.6608 | 0.7493 | 0.8602 | 0.9953 | 1.153 | 1.333
313.15 K | 0.4426 | 0.4991 | 0.5564 | 0.6277 | 0.7199 | 0.8175 | 0.9454 | 1.095 | 1.261

CC(CC(C)(C)C)CP(=O)([O-])CC(C)CC(C)(C)C.CCCCCCCC[P+](C)(C)C (centres undefined) + CCCCCCCCCCCC
viscosity [mPa·s], 101 kPa
Conditions | 298.15 K | 303.15 K | 308.15 K | 313.15 K | 318.15 K | 323.15 K
x2 = 0.24 | 172 | 129 | 99.8 | 79.4 | 63.3 | 51.3
x2 = 0.41 | 58.2 | 46 | 36.5 | 30 | 25 | 21.3
x2 = 0.55 | 23.8 | 20.1 | 17.1 | 14.9 | 12.9 | –

CCCCCCCCCc1ccccc1 + CCCCCCCCCCCCCCCC
viscosity [mPa·s], 102 kPa
Conditions | x1 = 0.1006 | x1 = 0.2005 | x1 = 0.3005 | x1 = 0.4001 | x1 = 0.5008 | x1 = 0.6006 | x1 = 0.6997 | x1 = 0.7978 | x1 = 0.9003
293.15 K | 3.4 | 3.32 | 3.28 | 3.22 | 3.18 | 3.15 | 3.13 | 3.12 | 3.12
303.15 K | 2.71 | 2.65 | 2.62 | 2.58 | 2.54 | 2.52 | 2.51 | 2.5 | –
313.15 K | 2.2 | 2.16 | 2.13 | 2.11 | 2.09 | 2.06 | 2.05 | 2.05 | 2.05
323.15 K | 1.83 | 1.8 | 1.78 | 1.76 | 1.74 | 1.73 | 1.72 | 1.71 | 1.71

CCCCCCCCCc1ccccc1 + CCCCCCCCCCCC
viscosity [mPa·s], 102 kPa
Conditions | x1 = 0.1006 | x1 = 0.2 | x1 = 0.3002 | x1 = 0.4001 | x1 = 0.5 | x1 = 0.5999 | x1 = 0.7004 | x1 = 0.8064 | x1 = 0.8998
293.15 K | 1.59 | 1.69 | 1.81 | 1.94 | 2.09 | 2.25 | 2.44 | 2.66 | 2.88
303.15 K | 1.33 | 1.41 | 1.5 | 1.61 | 1.72 | 1.84 | 1.99 | 2.15 | 2.31
313.15 K | 1.13 | 1.2 | 1.27 | 1.35 | 1.44 | 1.54 | 1.65 | 1.78 | 1.9
323.15 K | 0.971 | 1.03 | 1.09 | 1.16 | 1.23 | 1.31 | 1.4 | 1.5 | 1.59
